Consider 1 compound from ChEMBL document CHEMBL1141745, “New Sesquiterpene Lactones from Illicium floridanum” (J Nat Prod, 1998).

The LD50 is the dose expected to kill half of the subjects tested.

This data set in a line: Neurotoxicity against ip dosed mouse. The class given is toxicity, organism-based. The conditions noted are these: in vivo.

With `C[C@@H]1C[C@@H](O)[C@@]2(O)[C@@]13C[C@@H](OC(=O)[C@H]3O)[C@](C)(O)[C@@]21COC1=O` [ANISATIN], the LD50 turned out to be 1 mg/kg.
